Where a SMILES comes first, the peptide text is derived from it. The star is where a group is joined. Cbz = O=C(OCc1ccccc1)*; CH2F = FC*
Tests used:
[1] = test system: retinal ganglion cells (RGCs); assay: Transmission electron microscopy (TEM) quantification of apoptotic and necrotic RGC death after ON injury; assay type: in vivo, mouse
Description: In addition, the morphology of RGC death was assessed by transmission electron microscopy (TEM) as previously described (Trichonas et al., (2010) PROC NATL ACAD SCI USA)). Specifically, the eyes were enucleated, and the posterior segments were fixed in 2.5% glutaraldehyde and 2% paraformaldehyde in 0.1 M cacodylate buffer with 0.08 M CaCl2 at 4° C. The eyes were post-fixed for 1.5 hours in 2% aqueous OsO4, dehydrated in ethanol and water, and embedded in EPON. Ultrathin sections were cut from blocks and stained with saturated, aqueous uranyl acetate and Sato's lead stain. […] More than 50 RGCs per eye were photographed and subjected to quantification of cell death in a masked fashion. RGCs showing cellular shrinkage and nuclear condensation were defined as apoptotic cells, and RGCs associated with cellular and organelle swelling and discontinuities in nuclear and plasma membrane were defined as necrotic cells. Electron dense granular materials were labeled simply as end-stage unclassified cell death. Autophagosome was defined as a double- or multi-membraned structure containing cytoplasmic material and/or organelles, and autolysosome was defined as cytoplasmic vesicle containing electron dense degraded material, as previously described (Eskelinen, 2008).
RGC death was categorized into apoptosis, necrosis and unclassified end-stage of death, as previously described (Trichonas et al., (2010) PROC NATL ACAD SCI USA). […] Co-administration of ZVAD and Nec-1 led to a substantial decrease of both apoptotic and necrotic RGC death (% apoptotic cells: 4.2±5.1%, necrotic cells: 9.8±6.6%, unclassified: 1.8±1.8%, P<0.01; FIGS. 4C and 4D).
To identify the RGC death mode seen after ON injury transmission electron microscopy (TEM) studies was performed as previously described. RGCs that were unable to be classified were defined as end-stage cell death/unclassified. […] RGCs contained tubular sacs of rough endoplasmic reticulum (rER) surrounded by large numbers of ribosomes (Nissl bodies). Mitochondria were identified as round or oval double-membrane structures with characteristic cristae. In addition, the cytoplasm contained elements of Golgi apparatus (GA), free ribosomes and microtubules sectioned at various angles. A large round nucleus, surrounded by a double-layered nuclear membrane, contained homogeneously dispersed karyoplasm (chromatin material) and one or two electron dense nucleoli (FIG. 8A) (Saggu et al., (2010) BMC NEUROSCI 11:97)). After ON injury, RGC death through apoptosis was predominant.

[2] = test system: TNF-α; assay: TNF-α level in the retina after ON injury (quantitative real-time RT-PCR); assay type: in vivo, mouse; conditions: one day after ON injury; intravitreal Z-VAD (300 uM) and/or Nec-1 (400 uM)
Description: Total RNA extraction, cDNA synthesis and PCR amplification have been performed as previously reported (Kayama et al., (2010) OPHTHALMIC RES 43:79-91). A real-time PCR assay was performed with Prism 7700 Sequence Detection System (Applied Biosystems, Foster City, Calif.). The primers are shown below in Table 1.
For relative comparison of each gene, the Ct value of real-time PCR data was analyzed with the ΔΔCt method and normalized to an endogenous control ([…].
To investigate whether TNF-α is involved in RGC cell death in mice subjected to optic nerve (ON) injury (induced by physical injury to the optic nerve), TNF-α level in the retina was measured using quantitative real-time RT-PCR. As depicted in FIG. 2A, at one day after ON injury, TNF-α mRNA levels increased almost 10- to 13-fold relative to non-injured mice.

[3] = test system: retinal ganglion cells (RGCs); assay: Propidium iodide (PI) staining of necrotic cells in GCL after ON injury; assay type: in vivo, mouse; conditions: one day after ON injury, wild-type mice
From the text: To investigate further the underlying mechanism of why Z-VAD fails to prevent RGC death after ON injury, propidium iodide (PI) was used to detect necrotic cells in GCL (Unal Cevik et al., (2010)). At one day after ON injury, Z-VAD administration increased the number of PI positive cells compared with vehicle (FIGS. 4A and 4B).

[4] = studies on which the dose was selected; cited from earlier work
[5] = test system: caspase-8, caspase-9 and caspase-3; assay: Caspase-8, caspase-9 and caspase-3 activities in the retina after ON injury (commercial kit); assay type: in vivo, mouse; conditions: one day after ON injury, intravitreal Z-VAD
From the text: Two mouse models of RGC death were utilized: optic nerve (ON) injury and N-methyl-D-aspartate (NMDA) retinal excitotoxicity. ON injury leads to RGC death as a result of primary damage to the axons, with its ensuing disruption of retrograde axonal transport (Libby et al., (2005) PLOS GENET 1:17-26) and is used as an RGC death model. In the ON injury model, mice were anesthetized and subjected to severe crush injury at 1-2 mm distance from the eyeball for 15 seconds using cross-action forceps taking special care not to interfere with the blood supply (Levkovitch-Verbin, (2004) EYE 18:1066-1074). Injured mice were randomly divided into 4 groups for treatment: vehicle group (0.5% DMSO and 0.8% cyclodextrin in PBS, n=6), ZVAD group (300 n=6), Nec-1 group (4 mM, n=6), and ZVAD plus Nec-1 group (n=6). Soon after injury, each group received an intravitreal injection (2 μl) with the respective compounds. […]
In human glaucoma, RGC death has been attributed mainly to apoptosis (Kerrigan et al., (1997), Tatton et al., (2001)). […] The activities of caspase-8, caspase-9 and caspase-3 were measured using a commercially available kit according to the manufacturer's instructions (APT171/131/139; Millipore, Billerica, Mass.).

[6] = one day after ON injury, mean±SD

Structure (SMILES): COC(=O)CC(NC(=O)C(C)NC(=O)C(NC(=O)OCc1ccccc1)C(C)C)C(=O)CF (stereo not drawn) [Z-VAD, Benzyloxycarbonyl-Val-Ala-Asp(OMe)-fluoromethylketone] (Cbz-Val-Ala-Asp(OMe)-CH2F; configuration not given here)
- mode of RGC death, apoptotic versus necrotic (TEM) ([1]; after ON injury): blocked apoptotic cell death and sensitized cells to necrotic cell death
- apoptotic cells (RGC death, TEM) [1, 6]: 5.6±3.4%
- necrotic cells (RGC death, TEM) [1, 6]: 30.7±4.9%
- unclassified end-stage of death (TEM) [1, 6]: 3.4±2.3%
- increase of TNF-α levels after ON injury [2]: did not affect
- number of PI positive cells [3]: increased
- half-life inside the eye [4]: around 6 hours
- decrease of the activities of the caspases [5]: 70%
